Assay results as given in ChEMBL document CHEMBL4507265 (2021).

What was measured:
[1] = biological target: Serine/threonine-protein kinase mTOR (Homo sapiens) (UniProt P42345); conditions: Compound concentration 1000.0 nM
[2] = system: Phosphatidylinositol 4,5-bisphosphate 3-kinase catalytic subunit alpha isoform (Homo sapiens), P42336 [C420R]; conditions: Compound concentration 1000.0 nM
[3] = biological target: Tyrosine-protein kinase ZAP-70 (Homo sapiens) (UniProt P43403); conditions: Compound concentration 1000.0 nM
[4] = biological target: cAMP-dependent protein kinase catalytic subunit PRKX (Homo sapiens) (UniProt P51817); conditions: Compound concentration 1000.0 nM
[5] = biological target: TGF-beta receptor type-1 (Homo sapiens) (UniProt P36897); conditions: Compound concentration 1000.0 nM
[6] = system: eIF-2-alpha kinase GCN2 (Homo sapiens), Q9P2K8 [S808G]; conditions: Compound concentration 1000.0 nM
[7] = system: Tyrosine-protein kinase ABL1 (Homo sapiens), P00519 [Q252H]; conditions: Compound concentration 1000.0 nM
[8] = biological target: MAP kinase-interacting serine/threonine-protein kinase 2 (Homo sapiens) (UniProt Q9HBH9); conditions: Compound concentration 1000.0 nM
[9] = biological target: Serine/threonine-protein kinase 10 (Homo sapiens) (UniProt O94804); conditions: Compound concentration 1000.0 nM
[10] = biological target: Serine/threonine-protein kinase PAK 3 (Homo sapiens) (UniProt O75914); conditions: Compound concentration 1000.0 nM
[11] = biological target: Ribosomal protein S6 kinase alpha-1 (Homo sapiens) (UniProt Q15418); conditions: Compound concentration 1000.0 nM
[12] = biological target: Protein kinase C epsilon type (Homo sapiens) (UniProt Q02156); conditions: Compound concentration 1000.0 nM
[13] = biological target: Dual specificity mitogen-activated protein kinase kinase 5 (Homo sapiens) (UniProt Q13163); conditions: Compound concentration 1000.0 nM
[14] = biological target: 5'-AMP-activated protein kinase catalytic subunit alpha-2 (Homo sapiens) (UniProt P54646); conditions: Compound concentration 1000.0 nM
[15] = biological target: Serine/threonine-protein kinase ULK2 (Homo sapiens) (UniProt Q8IYT8); conditions: Compound concentration 1000.0 nM
[16] = biological target: Wee1-like protein kinase (Homo sapiens) (UniProt P30291); conditions: Compound concentration 1000.0 nM
[17] = biological target: Serine/threonine-protein kinase Nek6 (Homo sapiens) (UniProt Q9HC98); conditions: Compound concentration 1000.0 nM
[18] = biological target: Homeodomain-interacting protein kinase 1 (Homo sapiens) (UniProt Q86Z02); conditions: Compound concentration 1000.0 nM
[19] = biological target: Serine/threonine-protein kinase MAK (Homo sapiens) (UniProt P20794); conditions: Compound concentration 1000.0 nM
[20] = biological target: Mitogen-activated protein kinase kinase kinase 11 (Homo sapiens) (UniProt Q16584); conditions: Compound concentration 1000.0 nM
[21] = biological target: Mitogen-activated protein kinase 8 (Homo sapiens) (UniProt P45983); conditions: Compound concentration 1000.0 nM
[22] = biological target: Serine/threonine-protein kinase STK11 (Homo sapiens) (UniProt Q15831); conditions: Compound concentration 1000.0 nM
[23] = biological target: Phosphatidylinositol 5-phosphate 4-kinase type-2 gamma (Homo sapiens) (UniProt Q8TBX8); conditions: Compound concentration 1000.0 nM
[24] = biological target: Cyclin-dependent kinase 11B (Homo sapiens) (UniProt P21127); conditions: Compound concentration 1000.0 nM
[25] = biological target: Serine/threonine-protein kinase 38-like (Homo sapiens) (UniProt Q9Y2H1); conditions: Compound concentration 1000.0 nM
[26] = biological target: Tyrosine-protein kinase Fgr (Homo sapiens) (UniProt P09769); conditions: Compound concentration 1000.0 nM
[27] = biological target: Dual specificity protein kinase CLK4 (Homo sapiens) (UniProt Q9HAZ1); conditions: Compound concentration 1000.0 nM
[28] = system: Hepatocyte growth factor receptor (Homo sapiens), P08581 [Y1235D]; conditions: Compound concentration 1000.0 nM
[29] = biological target: Histamine H4 receptor (Homo sapiens) (UniProt Q9H3N8); conditions: Compound concentration 10.0 uM
[30] = biological target: Mast/stem cell growth factor receptor Kit (Homo sapiens) (UniProt P10721); conditions: Compound concentration 1000.0 nM
[31] = biological target: Mitogen-activated protein kinase kinase kinase 10 (Homo sapiens) (UniProt Q02779); conditions: Compound concentration 1000.0 nM
[32] = biological target: Ribosomal protein S6 kinase alpha-4 (Homo sapiens) (UniProt O75676); conditions: Compound concentration 1000.0 nM
[33] = biological target: Ribosomal protein S6 kinase alpha-5 (Homo sapiens) (UniProt O75582); conditions: Compound concentration 1000.0 nM
[34] = biological target: T1, D(4) dopamine receptor (Homo sapiens) (UniProt P21917); conditions: Compound concentration 10.0 uM
T1 sequence (whole entry): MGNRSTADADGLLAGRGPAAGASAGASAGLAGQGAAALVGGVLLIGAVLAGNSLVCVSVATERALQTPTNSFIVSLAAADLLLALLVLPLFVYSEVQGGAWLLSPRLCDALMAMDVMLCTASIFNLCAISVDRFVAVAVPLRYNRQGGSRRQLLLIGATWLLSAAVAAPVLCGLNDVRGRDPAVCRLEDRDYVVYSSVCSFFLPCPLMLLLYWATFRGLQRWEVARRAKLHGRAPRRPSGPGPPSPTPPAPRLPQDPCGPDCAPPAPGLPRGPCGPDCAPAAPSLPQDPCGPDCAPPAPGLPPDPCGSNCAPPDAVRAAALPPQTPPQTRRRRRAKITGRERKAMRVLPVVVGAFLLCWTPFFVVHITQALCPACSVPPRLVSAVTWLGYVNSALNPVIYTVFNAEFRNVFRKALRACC

[35] = biological target: cGMP-dependent protein kinase 2 (Homo sapiens) (UniProt Q13237); conditions: Compound concentration 1000.0 nM
[36] = biological target: Phosphorylase b kinase regulatory subunit alpha, liver isoform (Homo sapiens) (UniProt P46019); conditions: Compound concentration 1000.0 nM
[37] = system: ALK tyrosine kinase receptor (Homo sapiens), Q9UM73 [C1156Y]; conditions: Compound concentration 1000.0 nM
[38] = biological target: Ribosomal protein S6 kinase alpha-5 (Homo sapiens) (UniProt O75582); conditions: Compound concentration 1000.0 nM; remark: listed apart in the source
[39] = biological target: Protein kinase C theta type (Homo sapiens) (UniProt Q04759); conditions: Compound concentration 1000.0 nM

Sequence of Ribosomal protein S6 kinase alpha-5 (Homo sapiens) (O75582 whole entry, looked up): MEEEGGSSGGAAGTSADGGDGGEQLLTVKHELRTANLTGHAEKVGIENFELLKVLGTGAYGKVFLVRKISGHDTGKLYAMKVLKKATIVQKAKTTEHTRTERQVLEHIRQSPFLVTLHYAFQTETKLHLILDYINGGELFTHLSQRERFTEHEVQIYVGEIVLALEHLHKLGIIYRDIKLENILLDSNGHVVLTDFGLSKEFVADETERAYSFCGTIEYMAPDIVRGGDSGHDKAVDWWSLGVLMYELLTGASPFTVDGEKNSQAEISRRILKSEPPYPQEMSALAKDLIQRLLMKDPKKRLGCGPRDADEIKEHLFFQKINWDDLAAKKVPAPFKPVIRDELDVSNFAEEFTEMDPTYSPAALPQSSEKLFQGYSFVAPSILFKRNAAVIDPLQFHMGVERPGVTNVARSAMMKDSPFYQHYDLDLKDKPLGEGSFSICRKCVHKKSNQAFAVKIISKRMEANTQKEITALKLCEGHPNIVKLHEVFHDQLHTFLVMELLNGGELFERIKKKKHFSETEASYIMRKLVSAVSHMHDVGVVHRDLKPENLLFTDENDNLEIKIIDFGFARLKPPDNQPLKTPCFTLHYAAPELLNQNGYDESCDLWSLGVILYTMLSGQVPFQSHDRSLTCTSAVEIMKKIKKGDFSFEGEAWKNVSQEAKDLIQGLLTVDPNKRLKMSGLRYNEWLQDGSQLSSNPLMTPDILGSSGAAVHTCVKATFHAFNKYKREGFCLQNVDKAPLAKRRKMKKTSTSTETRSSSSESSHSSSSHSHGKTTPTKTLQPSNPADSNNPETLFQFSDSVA
Sequence of Mitogen-activated protein kinase 8 (Homo sapiens) (P45983 whole entry): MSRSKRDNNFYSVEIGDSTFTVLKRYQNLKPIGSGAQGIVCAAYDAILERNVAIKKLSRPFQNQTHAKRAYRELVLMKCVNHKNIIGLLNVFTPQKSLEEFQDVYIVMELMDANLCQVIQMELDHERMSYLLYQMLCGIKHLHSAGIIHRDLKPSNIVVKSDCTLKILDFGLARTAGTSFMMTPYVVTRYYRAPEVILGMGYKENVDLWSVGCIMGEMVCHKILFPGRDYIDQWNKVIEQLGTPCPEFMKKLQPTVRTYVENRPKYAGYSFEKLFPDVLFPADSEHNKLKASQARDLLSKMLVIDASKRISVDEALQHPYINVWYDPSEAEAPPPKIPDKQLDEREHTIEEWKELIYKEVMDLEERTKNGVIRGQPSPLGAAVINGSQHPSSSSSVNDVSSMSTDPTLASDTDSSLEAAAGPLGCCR
Sequence of Histamine H4 receptor (Homo sapiens) (Q9H3N8 whole entry): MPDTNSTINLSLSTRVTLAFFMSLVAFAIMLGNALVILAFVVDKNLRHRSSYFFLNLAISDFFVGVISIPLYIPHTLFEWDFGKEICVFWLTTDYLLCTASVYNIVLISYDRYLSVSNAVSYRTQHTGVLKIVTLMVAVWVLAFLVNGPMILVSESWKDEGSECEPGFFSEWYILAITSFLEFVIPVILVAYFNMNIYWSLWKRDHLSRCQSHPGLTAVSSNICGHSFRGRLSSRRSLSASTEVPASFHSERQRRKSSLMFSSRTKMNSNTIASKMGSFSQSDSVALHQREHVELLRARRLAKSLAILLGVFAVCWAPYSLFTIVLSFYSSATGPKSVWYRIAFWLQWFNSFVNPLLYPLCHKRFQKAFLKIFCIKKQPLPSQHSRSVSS
Sequence of cAMP-dependent protein kinase catalytic subunit PRKX (Homo sapiens) (P51817 whole entry): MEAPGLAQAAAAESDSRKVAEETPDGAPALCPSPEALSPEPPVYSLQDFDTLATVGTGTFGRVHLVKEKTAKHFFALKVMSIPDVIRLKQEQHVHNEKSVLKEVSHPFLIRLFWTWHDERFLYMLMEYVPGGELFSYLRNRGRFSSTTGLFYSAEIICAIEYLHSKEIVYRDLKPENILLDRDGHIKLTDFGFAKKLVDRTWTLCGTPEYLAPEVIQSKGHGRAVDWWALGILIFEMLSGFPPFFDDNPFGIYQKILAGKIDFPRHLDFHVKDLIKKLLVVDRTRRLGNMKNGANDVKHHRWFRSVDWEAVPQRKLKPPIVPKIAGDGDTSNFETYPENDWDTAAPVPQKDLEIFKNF
Sequence of Wee1-like protein kinase (Homo sapiens) (P30291 whole entry, looked up): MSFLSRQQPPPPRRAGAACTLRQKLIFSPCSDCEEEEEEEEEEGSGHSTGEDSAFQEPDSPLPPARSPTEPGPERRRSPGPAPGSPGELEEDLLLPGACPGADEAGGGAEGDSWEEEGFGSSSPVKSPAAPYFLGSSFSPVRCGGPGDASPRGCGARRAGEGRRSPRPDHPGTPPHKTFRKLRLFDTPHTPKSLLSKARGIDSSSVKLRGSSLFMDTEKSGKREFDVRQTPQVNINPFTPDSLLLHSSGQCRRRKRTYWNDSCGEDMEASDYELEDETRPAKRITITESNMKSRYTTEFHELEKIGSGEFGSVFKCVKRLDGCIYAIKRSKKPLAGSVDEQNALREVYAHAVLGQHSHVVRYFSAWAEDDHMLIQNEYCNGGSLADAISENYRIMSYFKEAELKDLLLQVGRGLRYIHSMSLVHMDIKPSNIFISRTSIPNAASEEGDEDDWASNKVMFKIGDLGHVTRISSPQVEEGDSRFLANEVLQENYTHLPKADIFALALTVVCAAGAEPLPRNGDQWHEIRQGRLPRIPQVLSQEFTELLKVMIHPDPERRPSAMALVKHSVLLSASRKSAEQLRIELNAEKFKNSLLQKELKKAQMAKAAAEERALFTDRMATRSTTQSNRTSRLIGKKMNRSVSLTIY
Sequence of Ribosomal protein S6 kinase alpha-4 (Homo sapiens) (O75676 whole entry, looked up): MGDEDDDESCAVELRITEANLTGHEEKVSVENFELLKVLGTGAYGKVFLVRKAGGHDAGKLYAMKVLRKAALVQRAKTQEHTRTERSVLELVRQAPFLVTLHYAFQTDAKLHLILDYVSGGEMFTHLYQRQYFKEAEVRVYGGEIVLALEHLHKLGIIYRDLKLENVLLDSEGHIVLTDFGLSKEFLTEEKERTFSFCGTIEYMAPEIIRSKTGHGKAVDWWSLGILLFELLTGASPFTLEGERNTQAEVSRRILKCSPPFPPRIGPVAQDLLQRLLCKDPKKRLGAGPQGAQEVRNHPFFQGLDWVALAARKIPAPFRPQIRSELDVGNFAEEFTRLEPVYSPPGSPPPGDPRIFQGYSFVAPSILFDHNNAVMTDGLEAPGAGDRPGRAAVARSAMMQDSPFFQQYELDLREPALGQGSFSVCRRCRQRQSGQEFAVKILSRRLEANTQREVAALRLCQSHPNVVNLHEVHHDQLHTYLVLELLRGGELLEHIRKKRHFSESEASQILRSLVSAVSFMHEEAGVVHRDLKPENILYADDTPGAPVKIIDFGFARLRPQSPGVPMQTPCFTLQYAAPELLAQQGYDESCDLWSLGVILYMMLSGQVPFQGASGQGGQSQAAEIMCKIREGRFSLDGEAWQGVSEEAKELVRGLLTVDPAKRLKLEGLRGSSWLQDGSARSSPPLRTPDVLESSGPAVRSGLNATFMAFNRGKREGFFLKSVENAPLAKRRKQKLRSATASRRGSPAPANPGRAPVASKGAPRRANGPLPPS
Sequence of Cyclin-dependent kinase 11B (Homo sapiens) (P21127 whole entry): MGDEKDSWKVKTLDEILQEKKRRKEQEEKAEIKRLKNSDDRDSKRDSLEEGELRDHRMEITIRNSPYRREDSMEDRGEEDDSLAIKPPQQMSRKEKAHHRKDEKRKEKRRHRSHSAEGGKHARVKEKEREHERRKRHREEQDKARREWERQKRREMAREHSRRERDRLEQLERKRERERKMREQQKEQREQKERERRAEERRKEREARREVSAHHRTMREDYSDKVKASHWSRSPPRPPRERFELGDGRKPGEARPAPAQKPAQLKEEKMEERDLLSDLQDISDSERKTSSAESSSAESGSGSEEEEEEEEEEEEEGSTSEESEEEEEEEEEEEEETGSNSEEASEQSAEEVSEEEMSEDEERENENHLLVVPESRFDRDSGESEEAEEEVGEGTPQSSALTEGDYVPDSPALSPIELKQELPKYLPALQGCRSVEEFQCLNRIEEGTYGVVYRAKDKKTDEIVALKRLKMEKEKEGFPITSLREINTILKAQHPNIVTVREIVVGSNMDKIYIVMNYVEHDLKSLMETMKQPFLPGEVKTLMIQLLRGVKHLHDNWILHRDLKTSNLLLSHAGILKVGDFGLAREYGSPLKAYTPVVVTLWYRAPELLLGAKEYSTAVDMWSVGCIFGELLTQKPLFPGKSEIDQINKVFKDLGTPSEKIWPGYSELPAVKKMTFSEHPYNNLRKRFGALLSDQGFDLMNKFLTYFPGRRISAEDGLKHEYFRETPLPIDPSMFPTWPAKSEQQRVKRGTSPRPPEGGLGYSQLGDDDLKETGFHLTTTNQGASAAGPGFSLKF
Sequence of Serine/threonine-protein kinase MAK (Homo sapiens) (P20794 whole entry): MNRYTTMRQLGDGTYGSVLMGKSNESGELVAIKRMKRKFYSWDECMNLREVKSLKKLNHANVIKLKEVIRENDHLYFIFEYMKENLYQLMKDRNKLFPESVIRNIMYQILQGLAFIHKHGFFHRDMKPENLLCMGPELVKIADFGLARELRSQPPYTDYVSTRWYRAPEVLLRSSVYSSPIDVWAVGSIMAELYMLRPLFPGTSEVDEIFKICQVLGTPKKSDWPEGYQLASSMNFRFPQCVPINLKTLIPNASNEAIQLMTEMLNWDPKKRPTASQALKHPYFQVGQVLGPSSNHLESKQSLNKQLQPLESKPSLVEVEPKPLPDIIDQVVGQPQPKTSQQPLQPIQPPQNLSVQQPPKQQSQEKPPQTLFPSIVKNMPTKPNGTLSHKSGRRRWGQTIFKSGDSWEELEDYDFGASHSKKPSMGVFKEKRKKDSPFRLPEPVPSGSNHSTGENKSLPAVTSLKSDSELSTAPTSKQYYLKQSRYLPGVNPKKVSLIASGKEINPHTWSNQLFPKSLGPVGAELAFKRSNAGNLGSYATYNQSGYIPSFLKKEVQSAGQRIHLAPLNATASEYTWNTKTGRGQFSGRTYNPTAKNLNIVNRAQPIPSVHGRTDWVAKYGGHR

NS(=O)(=O)c1cc(NC(=O)Cc2ccccc2)ccc1Oc1cccc(Cl)c1 [BAY-1797]
inactive: residual activity [1] 92% | residual activity [2] 62% | residual activity [3] 87% | residual activity [4] 91% | residual activity [5] 100% | residual activity [6] 100% | residual activity [7] 100% | residual activity [8] 86% | residual activity [9] 65% | residual activity [10] 85% | residual activity [11] 75% | residual activity [12] 87% | residual activity [13] 88% | residual activity [14] 82% | residual activity [15] 52% | residual activity [16] 75% | residual activity [17] 98% | residual activity [18] 80% | residual activity [19] 100% | residual activity [20] 78% | residual activity [21] 69% | residual activity [22] 51% | residual activity [23] 100% | residual activity [24] 71% | residual activity [25] 100% | residual activity [26] 100% | residual activity [27] 83% | residual activity [28] 100% | inhibition [29] -3.13% | residual activity [30] 87% | residual activity [31] 98% | residual activity [32] 100% | residual activity [33] 71% | inhibition [34] 28.4% | residual activity [35] 86% | residual activity [36] 100% | residual activity [37] 88% | residual activity [38] 100% | residual activity [39] 74%

NS(=O)(=O)c1cc(NC(=O)C2(c3ccccc3Cl)CC2)ccc1Oc1cccc(Cl)c1 [BAY-207]
inactive: residual activity [1] 100% | residual activity [2] 100% | residual activity [3] 100% | residual activity [4] 77% | residual activity [5] 82% | residual activity [6] 76% | residual activity [7] 58% | residual activity [8] 100% | residual activity [9] 69% | residual activity [10] 64% | residual activity [11] 100% | residual activity [12] 65% | residual activity [13] 94% | residual activity [14] 87% | residual activity [15] 100% | residual activity [16] 91% | residual activity [17] 81% | residual activity [18] 91% | residual activity [19] 89% | residual activity [20] 79% | residual activity [21] 100% | residual activity [22] 100% | residual activity [23] 62% | residual activity [24] 83% | residual activity [25] 81% | residual activity [26] 54% | residual activity [27] 100% | residual activity [28] 61% | inhibition [29] 0.09% | residual activity [30] 79% | residual activity [31] 100% | residual activity [32] 70% | residual activity [33] 100% | inhibition [34] 27% | residual activity [35] 100% | residual activity [36] 100% | residual activity [37] 100% | residual activity [38] 90% | residual activity [39] 88%
